Measurements published in patent US5444070A, “Phenyl substituted heterocyclic compounds” (NeuroSearch A/S, priority 1992, dated 1995).

What was measured:
[1] = system: reuptake of dopamine in synaptosomes of rat forebrain; assay: inhibition of dopamine reuptake in synaptosomes of rat forebrain; format: biochemical; settings: 3H-dopamine 1×10^-9 M, 10 min at 37° C., male Wistar rat forebrain synaptosomes; read-out: Dopamine reuptake inhibiting activity (IC50)
Method: Fresh whole forebrain (at 0°-4° C.) from male Wistar rats (150-200 g) is homogenized in a glass homogenizer with a teflon pestle in 20×volumes 0.32M sucrose. The homogenate is centrifuged at 1000×g (~2900 rpm) for 10 min. The pellet is discarded and the supernatant is used for uptake assays.
A Krebs Buffer (119 mM NaCl, 24 mM NaHCO3, 2.1 mM KCl, 1.2 mM KH2 PO4, 1.8 mM CaCl2, 2 mM MgSO4,7H2 O, 12 mM glucose) is equilibrated with an atmosphere of 96% O2 : 4% CO2 for at least 60 min at 37° C. To 5 ml Krebs-buffer 100 μl of the radioactivity is added (3H-dopamine 1×10^-9 M final concentration) and 100 μl test substance solution and 200 μl of tissue suspension. The samples are thoroughly mixed and incubated 10 min at 37° C. followed by 2 min at 0° C. After incubation the samples are poured directly onto Whatman GF/C glass fibre filters under suction and immediately washed with 2×5 ml ice-cold 0.9% saline (NaCl) buffer. To the filter is added 3 ml of scintillation fluid, and the amount of radioactivity on the filters is determined by conventional liquid scintillation counting.

[2] = system: abnormal stereotyped behaviour; assay: abnormal stereotyped behaviour; format: in vivo, rat; settings: at every relevant dosing level tested
From the text: Backward locomotion may occasionally be observed.
+=only stereotyped sniffing
++=stereotyped sniffing and episodic licking
+++=Continuous licking and/or biting gnawing

Row | SMILES | IC50 [1] | side effects: abnormal stereotyped behaviour [2]
1 | CN1[C@H]2CC[C@@H]1[C@H](c1nc(-c3ccccc3)no1)[C@@H](c1ccc3ccccc3c1)C2 [(1R,2R,3S)-2-(3-phenyl-1,2,4-oxadiazol-5-yl)-3-(2-naphthyl)-tropane] | 540 nM | –
2 | CN1[C@H]2CC[C@@H]1[C@H](c1nc(-c3ccccc3)no1)[C@@H](c1ccc(Cl)cc1)C2 [(1R,2R,3S)-2-(3-phenyl-1,2,4-oxadiazol-5-yl)-3-(4-chlorophenyl)-tropane] | 330 nM | –
3 | Cc1ccc([C@H]2C[C@@H]3CC[C@H]([C@@H]2c2nc(-c4ccccc4)no2)N3C)cc1 [(1R,2R,3S)-2-(3-phenyl-1,2,4-oxadiazol-5-yl)-3-(4-methylphenyl)-tropane] | 960 nM | –
4 | COC(=O)[C@@H]1[C@@H](c2ccc(F)cc2)C[C@@H]2CC[C@H]1N2C [trans isomer of Win 35,428, (1R,2R,3S)-2-carbomethoxy-3-(4-fluorophenyl)tropane, reference compound] | – | essentially or totally devoid of side effects
